We go through 16 compounds from patent US8772297B2, “TGF-β signal transduction inhibitor” (Kyoto University, priority 2010, dated 2014).

The subject of assay [1] is TGF-β signal transduction (Smad3/Smad4 complex activation) in x9CAGA/CCL64 cells. Description: Evaluation of TGF-β signal transduction inhibitory activity (CAGA-luciferase reporter, x9CAGA/CCL64 cells stimulated with human TGF-β1). Type of assay: cell-based, mink. The note with it: 0.5 ng/ml human TGF-β1; for inhibition at 50 µM: 50 μM test compound. The procedure:
The biological activity of a compound was determined by measuring the activation of Smad3/Smad4 complex which is a transcription factor showing activation induced by TGF-β stimulation. That is, a reporter plasmid having a DNA sequence (CAGA sequence), which is activated by binding to Smad3/Smad4 complex, is linked to the upstream of the luciferase gene (luminescence enzyme) was prepared. Mink lung epithelial cells CCL64 (named as x9CAGA/CCL64 cells) stably incorporating this reporter plasmid were established. The x9CAGA/CCL64 cells were cultured in DMEM medium containing 10% FBS, penicillin (100 U/ml), streptomycin ([…]), and blasticidin S (1 μg/ml). The x9CAGA/CCL64 cells were seeded in a 96 well plate at a concentration of 1.0×10^4 cells/well, and cultured in a 5% CO2 incubator at 37° C. The next day, the medium was changed to DMEM medium containing 0.2% FBS, and the test compound was added. […] After culture for 16 hr, the cells were washed with PBS, and lysed with 30 μl of cell lysis solution. […] The luminescence level of each well was measured using a Packard EnVision plate reader. The TGF-β signal transduction inhibitory activity of each compound in the x9CAGA/CCL64 cells was calculated from the ratio of the measurement values of the test compound-free well and the well with addition.
For orientation: A reporter such as luciferase makes a cellular process visible.

In assay [2] the test system is mouse bile duct ligation induced hepatic fibrosis model. Description: Anti-fibrillization action in mouse bile duct ligation induced hepatic fibrosis model (BDL model). Format: in vivo. As to conditions: ICR mice, tail vein once a day for 14 days, qPCR vs GAPDH, FIG. 4. The procedure: Hepatopathy caused by accumulation of bile in the liver and therewith associated liver fibrillization are induced by ligating the bile duct of mouse. The effect of the test compound on the hepatopathy and liver fibrillization associated therewith was evaluated. […]
mRNA was extracted from the hepatic tissue preserved in RNALater by using an RNA purification kit RNeasy Micro Kit (manufactured by QIAGEN), and the RNA concentration was determined using a spectrophotometer (Nano Drop). […] Using SYBR® Premix EX Taq™ (manufactured by TAKARA), a reaction mixture was prepared according to the package insert, qPCR reaction was performed using respective primers for αSMA and the internal standard GAPDH (manufactured by Invitrogen), and the mRNA expression level was quantified.
A general note: In qPCR the cycle at which signal appears reflects the starting amount.

With `CC(O)c1ccc(NS(=O)(=O)c2cccc(S(=O)(=O)NCC3CCN(C(=O)OC(C)(C)C)CC3)c2)cc1` (centres unmarked) [Y195, 4-({3-[4-(1-hydroxyethyl)phenylsulfamoyl]benzenesulfonylamino}methyl)-piperidine-1-carboxylic acid tert-butyl ester], the inhibition (as a rule, the relative decrease from the control value, in per cent) at 20 µM in assay [1] (20 μM test compound) was > 12.2%.

In the case of `CCCC(=O)N1CCC(CNS(=O)(=O)c2cccc(S(=O)(=O)Nc3ccc(N(C)C)c(-c4ccco4)c3)c2)CC1` [Y639, 4-{[3-(4-dimethylamino-3-furan-2-yl-phenylsulfamoyl)benzenesulfonylamino]methyl}-1-butyryl-piperidine], in assay [1], inhibition was half-maximal at 3.9 µM (IC50).

`CC(C)(C)OC(=O)N1CCC(CNS(=O)(=O)c2cccc(S(N)(=O)=O)c2)CC1` [Y082, 4-[(3-sulfamoylbenzenesulfonylamino)methyl]piperidine-1-carboxylic acid tert-butyl ester]: in assay [1], the inhibition at 50 µM is 29%.

For the compound `CC(=O)c1ccc(NS(=O)(=O)c2cccc(S(=O)(=O)NCC3CCN(C(=O)OC(C)(C)C)CC3)c2)cc1` [Y192, 4-{[3-(4-acetylphenylsulfamoyl)benzenesulfonylamino]methyl}piperidine-1-carboxylic acid tert-butyl ester], the inhibition at 20 µM in assay [1] (20 μM test compound) was > 18.4%.

`CC(C)(C)OC(=O)N1CCC(CNS(=O)(=O)c2cccc(S(=O)(=O)NCC3CCCCC3)c2)CC1` [Y101, 4-{[3-(cyclohexylmethylsulfamoyl)benzenesulfonylamino]methyl}-piperidine-1-carboxylic acid tert-butyl ester] returned an inhibition at 50 µM in assay [1] of 74%.

Consider `CC(C)(C)OC(=O)N1CCC(CNS(=O)(=O)c2cccc(S(=O)(=O)N3CCCCC3)c2)CC1` [Y029, 4-{[3-(piperidine-1-sulfonyl)benzenesulfonylamino]methyl}piperidine-1-carboxylic acid tert-butyl ester], for which at 50 µM the inhibition in assay [1] was 88%.

As for “4-{[3-(4-oxanylmethoxyphenylsulfamoyl)benzenesulfonylamino]methyl}-piperidine-1-carboxylic acid tert-butyl ester [Y198]”, the “inhibitory activity (%)” value in assay [1] (20 μM test compound) was “(>30.0%)”.

For the compound `CC(C)(C)OC(=O)N1CCC(CNS(=O)(=O)c2cccc(S(=O)(=O)N3CCOCC3)c2)CC1` [Y081, 4-{[3-(morpholine-4-sulfonyl)benzenesulfonylamino]methyl}piperidine-1-carboxylic acid tert-butyl ester], the inhibition at 50 µM in assay [1] is 45%.

Compound `Cc1ccc(N(C)S(=O)(=O)c2cccc(S(=O)(=O)N(C)CC3CCN(C(=O)OC(C)(C)C)CC3)c2)cc1` [Y191, 4-({methyl-[3-(methyl-p-tolylsulfamoyl)benzenesulfonyl]amino}methyl)piperidine-1-carboxylic acid tert-butyl ester] gave an inhibition at 20 µM in assay [1] (20 μM test compound) of 54%.

Compound `CC(C)(C)OC(=O)N1CCC(CNS(=O)(=O)c2ccccc2)CC1` [Y083, 4-(benzenesulfonylaminomethyl)piperidine-1-carboxylic acid tert-butyl ester] registered an inhibition at 50 µM in assay [1] of 24%.

In turn, `O=C(OCc1ccccc1)N1CCC(CNS(=O)(=O)c2cccc(S(=O)(=O)N3CCCCC3)c2)CC1` [Y053, 4-{[3-(piperidine-1-sulfonyl)benzenesulfonylamino]-methyl}-piperidine-1-carboxylic acid benzyl ester] had an inhibition at 50 µM in assay [1] of 67%.

Compound `CN(CC1CCN(C(=O)OC(C)(C)C)CC1)S(=O)(=O)c1cccc(S(=O)(=O)N(C)c2ccc(C(C)(C)C)cc2)c1` [Y205, 4-[({3-[(4-tert-butylphenyl)methylsulfamoyl]benzenesulfonyl}methylamino)-methyl]piperidine-1-carboxylic acid tert-butyl ester] had an inhibition at 20 µM in assay [1] (20 μM test compound) of 60%.

For `CN(C)c1ccc(NS(=O)(=O)c2cccc(S(=O)(=O)NCC3CCNCC3)c2)cc1-c1ccco1` [Y516, 4-{[3-(4-dimethylamino-3-furan-2-yl-phenylsulfamoyl)benzenesulfonylamino]methyl}piperidine], it took 66 µM to reach half-maximal inhibition in assay [1] (IC50). For the same compound, the “mRNA expression level of α smooth muscle actin in the liver tissue” value in assay [2] is on record as “significantly suppressed”.

`Cc1c(C)c(S(=O)(=O)NCC2CCN(C(=O)OC(C)(C)C)CC2)c(C)c(S(=O)(=O)Nc2ccc(C(C)(C)C)cc2)c1C` [Y335, 4-{[3-(4-tert-butylphenylsulfamoyl)-2,4,5,6-tetramethylbenzenesulfonylamino]methyl}piperidine-1-carboxylic acid tert-butyl ester]: the half-inhibitory concentration (IC50) (usually the concentration that inhibits the measured activity by half) in assay [1] worked out at 0.8 µM.

Compound `CCN(CC)S(=O)(=O)c1cccc(S(=O)(=O)NCC2CCN(C(=O)OC(C)(C)C)CC2)c1` [Y080, 4-[(3-diethylsulfamoylbenzenesulfonylamino)methyl]piperidine-1-carboxylic acid tert-butyl ester] yielded an inhibition at 50 µM in assay [1] of 66%.

With `CC(C)(C)OC(=O)N1CCN(S(=O)(=O)c2cccc(S(=O)(=O)N3CCCCC3)c2)CC1` [Y043, 4-[3-(piperidine-1-sulfonyl)benzenesulfonyl]piperazine-1-carboxylic acid tert-butyl ester], the inhibition at 50 µM in assay [1] worked out at 67%.
